# US20220363662A1, “COMPOUNDS AS LXR AGONISTS” (Integral Biosciences Privated Limited, priority 2021, published 2022)
# Target: T1, LXR beta (Homo sapiens, UniProt P55055)
# T1 construct: 5 μL of 4×LXR beta-LBD was added to each well (final concentration 5 nM); purchased Thermofisher PV4658
# T1 sequence (P55055 222-460 limits assumed): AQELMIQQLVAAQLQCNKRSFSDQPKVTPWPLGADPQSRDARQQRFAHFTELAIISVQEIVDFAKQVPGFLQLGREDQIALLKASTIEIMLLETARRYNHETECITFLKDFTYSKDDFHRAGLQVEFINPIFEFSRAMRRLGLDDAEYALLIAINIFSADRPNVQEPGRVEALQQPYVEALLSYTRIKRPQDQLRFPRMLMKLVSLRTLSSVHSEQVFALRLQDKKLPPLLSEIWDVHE
# Experiment: LXR beta agonist assay (Lanthascreen TR-FRET)
# Format: biochemical
# Details: LXR beta-LBD 5 nM, read-out: LXR-β EC50
# Method: EC50 values of compounds against LXR beta were determined at Integral BioSciences (India) using Lanthascreen TR-FRET (Thermofisher, Cat #PV4658). Assay was performed in a 20 μL final volume in a Black 384-well plate (Corning, Cat #4511). Dose response curve for the compounds were prepared in duplicates with starting concentration at 30 μM and a three-fold titration was performed. The reaction buffer consisted of TR-FRET Coregulator Buffer G. To the compound dilution, 5 μL of 4×LXR beta-LBD was added to each well (final concentration 5 nM). An equal volume (5 μL) containing 4×Fl-D22/Tb-anti GST antibody (final concentration 100 nM/10 nM) was added to initiate the enzyme reaction and the reaction was incubated for 60 min at 22° C. after which the plates were read using BioTek Plate reader for TR-FRET every hour up to 4 hours.
# Analysis was done using the standard curve by non-linear regression, variable slope inhibitor curve fits (Graph-Pad Prism) and EC50's of compounds were determined wherever possible.
row,Compound,EC50 [µM]
1,"COc1cccc(C2(C(=O)N3CCC(N4CC(Nc5ccc(C(=O)N(C)C)c(Cl)c5)C4)CC3)CCCC2)c1 [Compound 1.67, 2-chloro-4-(1-(1-(1-(3-methoxyphenyl)cyclopentanecarbonyl)piperidin-4-yl)azetidin-3-ylamino)-N,N-dimethylbenzamide]",0.995
2,"CN(C)C(=O)c1ccc(-c2nnc(C3=CCN(C(=O)C(O)(c4ccccc4)C(F)(F)F)CC3)s2)cc1Cl (stereo not drawn) [Compound 1.68, 2-chloro-N,N-dimethyl-4-(5-(1-(3,3,3-trifluoro-2-hydroxy-2-phenylpropanoyl)-1,2,3,6-tetrahydropyridin-4-yl)-1,3,4-thiadiazol-2-yl)benzamide]",4.58
3,"CN(C)C(=O)c1ccc(NC2CN(C3CCN(C(=O)C45CC(C4)C5)CC3)C2)cc1Cl [Compound 1.69, 4-(1-(1-(bicyclo[1.1.1]pentane-1-carbonyl)piperidin-4-yl)azetidin-3-ylamino)-2-chloro-N,N-dimethylbenzamide]",3.79
4,"CN(C)C(=O)c1ccc(-c2nnc(N3CCN(S(=O)(=O)c4ccccc4Cl)CC3)s2)cc1F [Compound 1.70, 4-(5-(4-(2-chlorophenylsulfonyl)piperazin-1-yl)-1,3,4-thiadiazol-2-yl)-2-fluoro-N,N-dimethylbenzamide]",9.77
5,"CN(C)C(=O)c1ccc(C2CCN(C3CC4(C3)CN(C(=O)C(O)(c3ccccc3)C(F)(F)F)C4)CC2)cc1Cl (stereo not drawn) [Compound 1.80, 2-chloro-N,N-dimethyl-4-(1-(2-(3,3,3-trifluoro-2-hydroxy-2-phenylpropanoyl)-2-azaspiro[3.3]heptan-6-yl)piperidin-4-yl)benzamide]",4.33
6,"CN(C)C(=O)c1ccc(NC2CN(C3CC4(C3)CN(C(=O)[C@](O)(c3ccccc3)C(F)(F)F)C4)C2)cc1Cl [Compound 1.81, 2-chloro-N,N-dimethyl-4-(1-(2-((R)-3,3,3-trifluoro-2-hydroxy-2-phenylpropanoyl)-2-azaspiro[3.3]heptan-6-yl)azetidin-3-ylamino)benzamide]",4.22
7,"CC1CN(S(=O)(=O)c2ccccc2Cl)CCN1c1nnc(-c2ccc(C(=O)N(C)C)c(F)c2)s1 (stereo not drawn) [Compound 1.82, 4-(5-(4-(2-chlorophenylsulfonyl)-2-methylpiperazin-1-yl)-1,3,4-thiadiazol-2-yl)-2-fluoro-N,N-dimethylbenzamide]",9.02
8,"CC1CN(c2nnc(-c3ccc(C(=O)N(C)C)c(Cl)c3)s2)CCN1S(=O)(=O)c1ccccc1Cl (stereo not drawn) [Compound 1.83, 2-chloro-4-(5-(4-(2-chlorophenylsulfonyl)-3-methylpiperazin-1-yl)-1,3,4-thiadiazol-2-yl)-N,N-dimethylbenzamide]",8.46
9,"CN(C)C(=O)c1ccc(NC2CN(C3CCN(C(=O)C(O)(c4ccccc4)C(F)(F)F)CC3)C2)cc1F (stereo not drawn) [Compound 1.85, 2-fluoro-N,N-dimethyl-4-((1-(1-(3,3,3-trifluoro-2-hydroxy-2-phenylpropanoyl)piperidin-4-yl)azetidin-3-yl)amino)benzamide]",> 30
10,"O=C(c1ccc(NC2CN(C3CCN(C(=O)C(O)(c4ccccc4)C(F)(F)F)CC3)C2)cc1Cl)N1CCCC1 (stereo not drawn) [Compound 1.88, 1-(4-(3-(3-chloro-4-(pyrrolidine-1-carbonyl)phenylamino)azetidin-1-yl)piperidin-1-yl)-3,3,3-trifluoro-2-hydroxy-2-phenylpropan-1-one]",> 30
11,"O=C(c1ccc(NC2CN(C3CCN(C(=O)C(O)(c4ccccc4)C(F)(F)F)CC3)C2)cc1Cl)N1CCCCC1 (stereo not drawn) [Compound 1.89, 1-(4-(3-(3-chloro-4-(piperidine-1-carbonyl)phenylamino)azetidin-1-yl)piperidin-1-yl)-3,3,3-trifluoro-2-hydroxy-2-phenylpropan-1-one]",> 30
12,"CC1CN(C(=O)c2ccc(NC3CN(C4CCN(C(=O)C(O)(c5ccccc5)C(F)(F)F)CC4)C3)cc2Cl)C1 (stereo not drawn) [Compound 1.94, 1-(4-(3-((3-chloro-4-(3-methylazetidine-1-carbonyl)phenyl)amino)azetidin-1-yl)piperidin-1-yl)-3,3,3-trifluoro-2-hydroxy-2-phenylpropan-1-one]",6.79
13,"O=C(NCC(F)F)c1ccc(NC2CN(C3CCN(C(=O)C(O)(c4ccccc4)C(F)(F)F)CC3)C2)cc1Cl (stereo not drawn) [Compound 1.98, 2-chloro-N-(2,2-difluoroethyl)-4-((1-(1-(3,3,3-trifluoro-2-hydroxy-2-phenylpropanoyl)piperidin-4-yl)azetidin-3-yl)amino)benzamide]",9.8
14,"CN(C)C(=O)c1ccc(NC2CN(C3CCN(C(=O)C(O)(C4CCCCC4)C(F)(F)F)CC3)C2)cc1Cl (stereo not drawn) [Compound 1.101, 2-chloro-4-((1-(1-(2-cyclohexyl-3,3,3-trifluoro-2-hydroxypropanoyl)piperidin-4-yl)azetidin-3-yl)amino)-N,N-dimethylbenzamide]",4.85
15,"O=C(c1ccc(NC2CN(C3CCN(C(=O)C(O)(c4ccccc4)C(F)(F)F)CC3)C2)cc1Cl)N1CCN(C(=O)C2CCC2)CC1 (stereo not drawn) [Compound 1.102, 1-(4-(3-((3-chloro-4-(4-(cyclobutanecarbonyl)piperazine-1-carbonyl)phenyl)amino)azetidin-1-yl)piperidin-1-yl)-3,3,3-trifluoro-2-hydroxy-2-phenylpropan-1-one]",3.18
16,"CC(=O)N1CCN(C(=O)c2ccc(NC3CN(C4CCN(C(=O)C(O)(c5ccccc5)C(F)(F)F)CC4)C3)cc2Cl)CC1 (stereo not drawn) [Compound 1.103, 1-(4-(3-((4-(4-acetylpiperazine-1-carbonyl)-3-chlorophenyl)amino)azetidin-1-yl)piperidin-1-yl)-3,3,3-trifluoro-2-hydroxy-2-phenylpropan-1-one]",> 30
17,"O=C(c1ccc(NC2CN(C3CCN(C(=O)C(O)(c4ccccc4)C(F)(F)F)CC3)C2)cc1Cl)N1CC(F)(F)C1 (stereo not drawn) [Compound 1.110, 1-(4-(3-(3-chloro-4-(3,3-difluoroazetidine-1-carbonyl)phenylamino)azetidin-1-yl)piperidin-1-yl)-3,3,3-trifluoro-2-hydroxy-2-phenylpropan-1-one]",5.71
18,"COCCCN(C)C(=O)c1ccc(N2CCN(C3CC4(C3)CN(C(=O)C(O)(c3ccccc3)C(F)(F)F)C4)CC2)cc1Cl (stereo not drawn) [Compound 1.119, 2-chloro-N-(3-methoxypropyl)-N-methyl-4-(4-(2-(3,3,3-trifluoro-2-hydroxy-2-phenylpropanoyl)-2-azaspiro[3.3]heptan-6-yl)piperazin-1-yl)benzamide]",2.85
19,"CN(C)C(=O)c1c(Cl)cc(NC2CN(C3CCN(C(=O)[C@](O)(c4ccccc4)C(F)(F)F)CC3)C2)cc1Cl [Compound 1.122, (R)-2,6-dichloro-N,N-dimethyl-4-(1-(1-(3,3,3-trifluoro-2-hydroxy-2-phenylpropanoyl)piperidin-4-yl)azetidin-3-ylamino)benzamide]",4.26
20,"CN(C)C(=O)c1c(Cl)cc(NC2CN(C3CCN(C(=O)[C@@](O)(c4ccccc4)C(F)(F)F)CC3)C2)cc1Cl [Compound 1.123, (S)-2,6-dichloro-N,N-dimethyl-4-(1-(1-(3,3,3-trifluoro-2-hydroxy-2-phenylpropanoyl)piperidin-4-yl)azetidin-3-ylamino)benzamide]",> 27
21,"COCCCN(C)C(=O)c1ccc(NC2CN(C3CCN(C(=O)[C@](O)(c4ccccc4)C(F)(F)F)CC3)C2)cc1Cl [Compound 1.124, (R)-2-chloro-N-(3-methoxypropyl)-N-methyl-4-(1-(1-(3,3,3-trifluoro-2-hydroxy-2-phenylpropanoyl)piperidin-4-yl)azetidin-3-ylamino)benzamide]",1.57
